pEC50, pIC50: −log10 of the molar value. Values after ≈ are worked out from the molar mass of the structure shown. Read-outs that look alike come from different tables or passages of the source. Marks after values point to notes of the source that are not given here.
Assays:
[1] = GSK inMac assay, host cell toxicity readout (LD MAC); type: cell-based, human; conditions: human; footnote c; read-out: THP-1 Host Cell CC50
Outline: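 MAC EC50 reflects THP-1 host cell counts, measured within GSK's inMac L. donovani infection assay that also scores intracellular amastigotes and infected-cell percentage.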

[2] = system: L. donovani intracellular amastigotes in B10R cells; assay: UCSD L. donovani infection assay (Assay Conditions D); type: cell-based; conditions: for L. donovani amastigotes EC75 (B10R cells): footnote d; for pEC50 / pIC50: Leishmania donovani
Outline: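 Compounds, either single-point at 10 μM or 10-point 2-fold series (3 technical, 2 biological replicates), were incubated 72 h at 37° C. with B10R host cells co-seeded with day-7 stationary L. donovani promastigotes (20:1). DAPI-stained nuclei imaging yielded intracellular parasite EC50 and host-cell CC50.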

[3] = UCSD infection assay, host cell cytotoxicity (CC50); type: cell-based; conditions: mouse, B10R host cells infected with L. donovani; footnote d
[4] = system: L. major (strain Friedlin) in J774 cells; assay: J774 luciferase infection assay (Assay Conditions E); type: cell-based, Leishmania major; conditions: values marked e
Protocol: (§1) Assay Conditions E: J774 cells (ATCC J774A.1 were grown in DMEM supplemented with 10% Fetal Bovine Serum (FBS) and 1% Penicillin-Streptomycin at 37° C. in 5% CO2. Leishmania parasites expressing luciferase and GFP were grown as described in Front. Cell. Infect. Microbiol (2019) 9:237. J774 cells were seeded in microwell plates at 3×10^5 cells/mL density. Cells were washed with PBS and incubated with complete DMEM medium containing stationary phase Leishmania promastigotes (L. major: strain Friedlin; L. braziliensis, strain BA788) at a 1:10 parasite-cell ratio for 24 h. Cells were washed with PBS. Cells and compounds were incubated for 48 h at 37° C. and 5% C02. Compounds were tested in 8-point 2-fold serial dilution in 4 technical replicates, and 2 biological replicates. After 48 h, OneTiterGlo (Promega) (100 μl) was added to each well. Plates were incubated for 15 min and bioluminescence was measured using a plate reader (Molecular Devices). Effective concentration inducing 75% activity (EC75) was calculated using GraphPad Prism Software (version 9.0).

[5] = system: L. braziliensis (strain BA788) in J774 cells; assay: as above; type: cell-based, Leishmania braziliensis; conditions: footnote e
Protocol: as §1

[6] = system: L. donovani intracellular amastigotes infecting THP-1 macrophages; assay: GSK intramacrophage L. donovani assay (LD AMMAC, inMac; Assay Conditions C); type: cell-based; conditions: Leishmania donovani; for pEC50: THP-1 cells, values marked c, read-out: L. donovani amastigotes EC50 (THP-1 cells); for pIC50: THP-1
Outline: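 EC50 values come from counting amastigotes per infected THP-1 macrophage (AMMAC). Parallel read-outs give percentage of infected cells per well (INFCELL) and a macrophage-number toxicity EC50 (MAC).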

[7] = system: L. braziliensis-infected macrophages; assay: Macrophage (BMDM) infection with L. braziliensis and exposure to CMLDs; type: cell-based, Leishmania braziliensis
Protocol: Leishmania braziliensis (MIHOM/BR/00/BA788) and L. major (Friedlin) promastigotes were maintained in Schneider's medium (SIGMA) supplemented with 10% heat-inactivated FCS, 100 U/ml penicillin, 100 μg/ml streptomycin (all from Invitrogen).
BMDM were obtained as described above. Cells were resuspended in DMEM medium supplemented with 100 U/mL penicillin, […] streptomycin, and 10% heat-inactivated Fetal Bovine Serum (all from Invitrogen) and seeded at a density of 3×10^5 cells per well in 24-well culture plates. Monolayers received 3×10^6 cells L. braziliensis promastigotes and were incubated at 37° C. in supplemented DMEM medium for 24 h. Infected macrophages were then washed to remove non-internalized parasites. Compounds CMLD 011128, CMLD010947, CMLD010498, and CMLD011494 were added at different concentrations. After 24 hours, cells were extensively washed, fixed and stained with hematoxylin and eosin (H&E). The number of infected cells and of intracellular amastigotes were counted by optical microscopy in 200 macrophages. Positive controls consisted of cultures treated with Amphotericin B (0.25 μg/mL, Invitrogen). Cultures were performed in quintuplicate. Alternatively, infected macrophages were treated as described, monolayers were extensively washed and the medium was replaced by 0.5 ml of supplemented Schneider medium. Cells were cultured for seven additional days at 26° C., when number of viable promastigotes was determined using hemocytometer.
Results were expressed as the mean percentage reduction of infected cells compared with untreated control wells. Half-maximal effective concentrations (EC50) were determined by sigmoidal regression curves using Prism 7.0 software (GraphPad Software Inc.)

[8] = Kinetic aqueous solubility by CAD; type: physicochemical; conditions: aqueous medium, kinetic from dmso stock, high-throughput CAD
Protocol: Solubility of compounds using ChemiLuminescent Nitrogen Detection (CLND) was measured as described. Solubility of compounds using Charged Aerosol Detection (CAD) was measured as described. Solubility of solid compounds in Fasted Simulated Intestinal Fluid (FaSSIF) was measured as described.

human serum albumin = human serum albumin (Homo sapiens, UniProt P02768); assay: Human serum albumin (HSA) binding, chromatographic; type: in vitro ADME
Chain of human serum albumin (P02768 25-609): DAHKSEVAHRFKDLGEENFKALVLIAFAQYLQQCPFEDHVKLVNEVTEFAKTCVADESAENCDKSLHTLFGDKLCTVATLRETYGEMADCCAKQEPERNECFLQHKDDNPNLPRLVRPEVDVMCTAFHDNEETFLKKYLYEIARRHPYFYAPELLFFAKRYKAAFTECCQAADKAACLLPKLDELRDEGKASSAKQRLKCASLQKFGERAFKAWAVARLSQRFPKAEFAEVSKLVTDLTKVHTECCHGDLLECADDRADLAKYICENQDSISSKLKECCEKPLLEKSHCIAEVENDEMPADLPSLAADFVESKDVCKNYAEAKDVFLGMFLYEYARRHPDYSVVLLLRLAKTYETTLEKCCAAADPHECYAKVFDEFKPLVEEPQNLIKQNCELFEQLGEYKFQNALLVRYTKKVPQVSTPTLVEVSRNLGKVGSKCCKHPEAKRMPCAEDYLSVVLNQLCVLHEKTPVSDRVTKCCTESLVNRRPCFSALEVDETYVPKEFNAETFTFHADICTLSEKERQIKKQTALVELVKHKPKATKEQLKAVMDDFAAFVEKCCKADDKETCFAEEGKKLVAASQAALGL
Protocol: The percentage of compound bound to human serum albumin was measured using a chromatographic method as described. Briefly, each compound was assayed on an immobilized HSA column and gradient retention times measured, with chromatographic peak detection by UV. Each retention time was then converted to a % HSA bound value using a calibration set of compounds with a known % HSA binding.

[9] = Property forecast index (PFI = ChromLogD7.4 + aromatic rings); type: physicochemical
[10] = UCSD infection assay, host cell cytotoxicity (CC50); type: cell-based; conditions: host macrophages infected with L. donovani; cytotoxicity against host macrophages
[11] = B10R cells, values marked d, read-out: L. donovani amastigotes EC50 (B10R cells)
[12] = average of two biological replicates, read-out: L. donovani EC50 (UCSD assay)

Compound | CC50 [1] [µM] | L. donovani amastigotes EC75 (B10R cells) ([2]; B10R cells) [µM] | pEC50 [2, 11] | CC50 at 72 h [3] [µM] | L. major amastigotes EC75 (J774 cells) [4] | L. braziliensis amastigotes EC75 (J774 cells) [5] [µM] | pEC50 [6] | leishmanicidal effect on L. braziliensis infection in vitro [7] | percentage of infected macrophages ([7]; L. braziliensis, 24 h exposure) | pIC50 [6] | pIC50 [2] | pEC50 [2, 12] | solubility [8] [µM] | HSA Binding (human serum albumin) [%] | PFI [9] | CC50 at 72 h [10] [µM]
COc1ccc(N2C(=O)c3[nH]nc(CC(C)C)c3C2c2ccccc2Cl)cn1 (stereo not shown) [BUCMD00686] | 9.9 | 0.5 | 5.96 | 10 | >10^e μM | 1.0 |  |  |  |  |  |  |  |  |  | 
COc1ccc(N2C(=O)c3[nH]nc(CC(C)C)c3C2c2ccc(F)cc2)cc1F (stereo not shown) [CMLD010884] | 25.1 | 0.8 |  | 20 | 7.2^e μM | >10 | 5.89 |  |  |  |  |  |  |  |  | 
COc1ccc(N2C(=O)c3[nH]nc(CC(C)C)c3C2c2ccccc2Cl)cc1 (stereo not shown) [CMLD010893] | 20 | 0.3 |  | 6.31 | 8.3^e μM | >10 | 5.89 |  |  |  |  |  |  |  |  | 
CC(C)Cc1n[nH]c2c1C(c1ccc(F)cc1)N(c1ccc3c(c1)OCO3)C2=O (stereo not shown) [CMLD010901] | 25.1 | 0.4 |  | 12.6 | 6.0^e μM | 8.7 | 6.22 |  |  |  |  |  |  |  |  | 
CC(C)Cc1n[nH]c2c1C(c1ccccc1Cl)N(c1ccc3c(c1)OCO3)C2=O (stereo not shown) [CMLD010902] | 12.2 |  | 6.70 |  | 7.3^e μM | >10 |  |  |  |  |  |  |  |  |  | 
COc1ccc(N2C(=O)c3[nH]nc(CC(C)C)c3[C@@H]2c2ccc(F)cc2)cc1 [CMLD011128] | > 20 | 0.5 |  |  |  | 7.5 | 6.10 | did not show leishmanicidal effects | did not decrease |  |  |  |  |  |  | 
CC(C)Cc1n[nH]c2c1C(c1ccccc1Br)N(c1ccc3c(c1)OCO3)C2=O (stereo not shown) [CMLD011548] | > 20 |  | 6.52 |  | 1.8^e μM | 5.2 |  |  |  |  |  |  |  |  |  | 
CC(C)Cc1n[nH]c2c1C(c1ccccc1Br)N(c1ccc(N(C)C)cc1)C2=O (stereo not shown) [CMLD011554] | 5.7 | 0.1 | 7.00 | 6.31 | 5.2^c μM | 2.9 |  |  |  |  |  |  |  |  |  | 
Cc1cc(F)ccc1C1c2c(CC(C)C)n[nH]c2C(=O)N1c1ccc(N(C)C)cc1 (stereo not shown) [CMLD011561] | 7.5 | 0.1 | 7.00 | 7.94 | 1.9^e μM | 2.1 |  |  |  |  |  |  |  |  |  | 
COc1ccc(N2C(=O)c3[nH]nc(CC(C)C)c3C2c2ccc(F)cc2C)cc1F (stereo not shown) [CMLD011562] | 10.9 | 0.2 | 6.70 | 10 | 2.7^e μM | 5.2 |  |  |  |  |  |  |  |  |  | 
Cc1cc(F)ccc1C1c2c(CC(C)C)n[nH]c2C(=O)N1c1ccc2c(c1)OCO2 (stereo not shown) [CMLD011564] | 12.1 | 0.1 | 7.00 | 12.6 | 1.4^e μM | 4.9 |  |  |  |  |  |  |  |  |  | 
COc1cc(F)ccc1C1c2c(CC(C)C)n[nH]c2C(=O)N1c1ccc(N(C)C)cc1 (stereo not shown) [CMLD011572] | 8.5 |  |  | 10 | 1.3^e μM | 1.9 |  |  |  |  |  |  |  |  |  | 
COc1ccc(N2C(=O)c3[nH]nc(CC(C)C)c3C2c2ccc(F)cc2OC)cn1 (stereo not shown) [CMLD011574] | > 20 | 0.3 | 6.52 |  | 4.8^e μM | 8.2 |  |  |  |  |  |  |  |  |  | 
COc1ccc(N2C(=O)c3[nH]nc(CC(C)C)c3C2c2ccccc2OC)cn1 (stereo not shown) [Compound 85, 3-isobutyl-4-(2-methoxyphenyl)-5-(6-methoxypyridin-3-yl)-4,5-dihydropyrrolo[3,4-c]pyrazol-6(1H)-one] |  |  |  |  |  |  |  |  |  | 5.10 | 5.96 | 5.95 | 176 (≈ 69.1 µg/mL) | 93.9 | 8.0 | > 20
Cc1cc(F)ccc1C1c2c(CC(C)C)n[nH]c2C(=O)N1c1ccc2ncnn2c1 (stereo not shown) [Compound 89, 5-([1,2,4]triazolo[1,5-a]pyridin-6-yl)-4-(4-fluoro-2-methylphenyl)-3-isobutyl-4,5-dihydropyrrolo[3,4-c]pyrazol-6(1H)-one] |  |  |  |  |  |  |  |  |  | 5.80 | 6.05 | 6.06 | < 1 | 93.2 | 8.1 | > 20
